Read-outs that look alike come from different tables or passages of the source.

We go through 2 compounds from EP2401611B1, “IMPROVED METHODS FOR IDENTIFICATION” (Cambridge Enterprise Limited, priority 2009, dated 2010).

For assay [1], the system named is Panc-2H4. Nature of the assay: Human Panc-2H4 insulin suppression assay. It counts as cell-based. Conditions: Homo sapiens. The source says:
Two different assays for "classical" sstr2 functions were adopted: (1) cultured foetal rat pituitary cells secreted growth hormone which is inhibited by sstr2 agonists in a dose-dependent fashion and (2) selected glucose-sensitive sub-clones of the human Panc-1 cell line secrete insulin which is inhibited by sstr2 agonists in a dose-dependent fashion.
Glucose-sensitive sub-clones of the human Panc-1, a cell line derived from a pleiomorphic epithelioid carcinoma of the exocrine pancreas, were obtained essentially as described by Hamil et al. (2008) Biomed. Sci. Instrum. 44:441-6. Briefly, Panc-1 cells were subcultured in 24 well plates, and the medium was supplemented with an additional 5% glucose. […] The resulting sub-lines were then tested for glucose sensitivity by preparing wells of a 96-well plate (5 x 10^4 cells per well) which were then exposed to cultured medium containing a range of glucose concentrations (low glucose DMEM, DMEM, DMEM + 1% glucose, DMEM ± 2.5% glucose and DMEM + 5% glucose). After 24hrs incubation, the conditioned medium was collected and assayed for insulin secretion by ELISA (Linco; cat# EZHI-14K) in accordance with the manufacturer's instructions. […] Further 96 well plates were prepared using Panc-2H4 (5 x 10^4 cells per well) in DMEM. After 24hrs, the medium was switched to DMEM + 5% glucose containing various test agents at various concentrations (triplicate wells per condition). After a further 24hrs, the conditioned medium was harvested and the concentration of insulin was determined by ELISA as described above.
Results were reported as the mean ± SD, expressed as the fold change from cells in the presence of vehicle only.

In assay [2] the test system is Jurkat T cells. Nature of the assay: SDF-1α induced migration of parental Jurkat T cells. The class given is cell-based, human. How it is done: Jurkat T cells and Jurkat-D3B cells were induced to migrate in response to 100ng/ml SDF-1α (R&D systems; the concentration of SDF-1α which induced maximal cell migration in both lines). The BSCI BN83250 was then added at various concentrations between 0nM and 1000nM (each in triplicate) to both the upper and lower compartments (at the same concentration in each compartment, so as not to create a gradient of BSCI concentration). DMSO (1% final concentration) was used as the vehicle, and was present in all wells at equal concentration.

The mark [3] stands for this setting: Table 3, percentage suppression compared to vehicle, read-out: Human Panc-2H4 insulin suppression assay Max effect (%).

Take `CCCCCCCCCCC(C)(C)C(=O)N[C@H]1CCCCNC1=O` [BN83250, (S)-3-(2',2'-dimethyldodecanoyl)amino-caprolactam]: the Emax in assay [1] (setting [3]) is 28%; in assay [1] (Table 5, read-out: Panc-2H4 insulin suppression assay ("classical" target) Max Effect (%)) it was 28%. Also, the EC50 in assay [1] (Table 3, read-out: Human Panc-2H4 insulin suppression assay ED50) was found to be 1000 nM; in assay [1] (Table 5, library screening hits, read-out: Panc-2H4 insulin suppression assay ("classical" target) ED50) it was 1000 nM. The “effect on SDF-1α induced migration of parental Jurkat T cell line (in words)” value in assay [2] is listed as “little or no effect”.
As to `CC(C)(C)C(=O)N[C@H]1CCCNC1=O` [Valerolactam, (S)-3-(2'2'-dimethylpropionoylamino)-tetrahydropyridin-2-one], in assay [1] (setting [3]), the Emax was < 10%.
